Target: T1, Human CaV2.2 channels (Homo sapiens, UniProt Q00975)
T1 construct: expressed in transfected cells
Assay: Fluorescence assay for CaV2.2 channels using potassium depolarization to induce channel opening (FLIPR, Fluo 4)
Assay type: cell-based
Details: 30 mM KCl (alternative assay buffer, inactivated channel state), HEK293 cells; for Activity Category: %-Inhib (CaV2.2) @3 μM @30 mM KCl: 3 μM test compound; for inhibition at 3 µM: HEK293, 3 μM test compound, read-out: Activity Category: %-Inhib (CaV2.2) @3 μM @30 mM KCl
From the text: In the process, the Ca^2+ influx is quantified in the FLIPR assay with the aid of a Ca^2+-sensitive dye (type Fluo-4, Molecular Probes Europe BV, Leiden, the Netherlands) in a fluorescent imaging plate reader (FLIPR 3, Molecular Devices, Sunnyvale, USA), as described hereinafter.
2.1 Fluorescence Assay for CaV2.2 Channels Using Potassium Depolarization to Induce Channel Opening
Human CaV2.2 channels were stably expressed in HEK293 cells together with alpha2-delta and beta subunits of voltage gated calcium channels. In addition, an inwardly rectifying potassium channel (Kir2.3) was stably expressed in these cells to augment control of the cell membrane potential by the concentration of extracellular potassium ions. Raise of the extracellular potassium concentration leads to depolarization of the membrane potential and thus regulates the voltage dependent state of CaV2.2 channels. For preparation, cells were seeded in black poly-D-lysine coated 96-well plates (Becton Dickinson, Biocoat 4640) in 100 μL medium [500 mL DMEM/F-12 plus Glutamax (Invitrogen 31331-093) plus 5.5 mL MEM NEAA 100× (Invitrogen 11140-035) plus 50 mL FBS decomplemented (Invitrogen 10270-106) plus 200 μg/mL Geneticin (Invitrogen 10131-027) plus 50 μg/mL Hygromycin B (Invitrogen 10687-010) plus 2 μg/mL Blasticidin (anti-b15b Invivo-Gen) plus 0.2 μg/mL Puromycin (A 11138-03)] at a cell density of 30.000 cells per well. Plates were incubated at 37° C. (5% CO2) for 20 to 23 h. On the day of experiment medium was discarded and cells were loaded with Fluo 4 by addition of 100 μL of basic assay buffer (10 mM HEPES, 1 mM KCl, 149 mM NaCl, 0.8 mM CaCl2, 1.7 mM MgCl2, 10 mM Glucose, 0.1% BSA. pH 7.4) containing 2 μM Fluo 4 (Molecular Probes; F-14201), 0.01% pluronic acid (Molecular Probes; P-6866) and 2.5 mM probenecid (Molecular Probes; P36400). Cells were incubated in the dark at 25° C. for 60 min. Then dye containing buffer was discarded and […] basic (1 mM KCl) or alternative (30 mM KCl) assay buffer was added. The alternative assay buffer contained altered concentrations of KCl (30 mM) and NaCl (120 mM) and was used in order to promote the inactivated channel state. After that 25 μL of basic or alternative assay buffer with or without test compound were added and cells were incubated again in the dark at 25° C. for 15 min. Fluorescence intensity was measured on a FLIPR 3 instrument (Molecular Devices Corp., Sunnyvale, Calif.) with excitation at 480 nm and emission at 535 nm. After continuously reading fluorescence for 30 sec, 50 μL of basic assay buffer containing 210 mM KCl (NaCl omitted) were added for depolarization. Peak fluorescent signal intensity was determined and the amplitude of the peak signal, normalized to base line, was used to measure channel inhibition by test compounds.

T1 sequence (Q00975 whole entry): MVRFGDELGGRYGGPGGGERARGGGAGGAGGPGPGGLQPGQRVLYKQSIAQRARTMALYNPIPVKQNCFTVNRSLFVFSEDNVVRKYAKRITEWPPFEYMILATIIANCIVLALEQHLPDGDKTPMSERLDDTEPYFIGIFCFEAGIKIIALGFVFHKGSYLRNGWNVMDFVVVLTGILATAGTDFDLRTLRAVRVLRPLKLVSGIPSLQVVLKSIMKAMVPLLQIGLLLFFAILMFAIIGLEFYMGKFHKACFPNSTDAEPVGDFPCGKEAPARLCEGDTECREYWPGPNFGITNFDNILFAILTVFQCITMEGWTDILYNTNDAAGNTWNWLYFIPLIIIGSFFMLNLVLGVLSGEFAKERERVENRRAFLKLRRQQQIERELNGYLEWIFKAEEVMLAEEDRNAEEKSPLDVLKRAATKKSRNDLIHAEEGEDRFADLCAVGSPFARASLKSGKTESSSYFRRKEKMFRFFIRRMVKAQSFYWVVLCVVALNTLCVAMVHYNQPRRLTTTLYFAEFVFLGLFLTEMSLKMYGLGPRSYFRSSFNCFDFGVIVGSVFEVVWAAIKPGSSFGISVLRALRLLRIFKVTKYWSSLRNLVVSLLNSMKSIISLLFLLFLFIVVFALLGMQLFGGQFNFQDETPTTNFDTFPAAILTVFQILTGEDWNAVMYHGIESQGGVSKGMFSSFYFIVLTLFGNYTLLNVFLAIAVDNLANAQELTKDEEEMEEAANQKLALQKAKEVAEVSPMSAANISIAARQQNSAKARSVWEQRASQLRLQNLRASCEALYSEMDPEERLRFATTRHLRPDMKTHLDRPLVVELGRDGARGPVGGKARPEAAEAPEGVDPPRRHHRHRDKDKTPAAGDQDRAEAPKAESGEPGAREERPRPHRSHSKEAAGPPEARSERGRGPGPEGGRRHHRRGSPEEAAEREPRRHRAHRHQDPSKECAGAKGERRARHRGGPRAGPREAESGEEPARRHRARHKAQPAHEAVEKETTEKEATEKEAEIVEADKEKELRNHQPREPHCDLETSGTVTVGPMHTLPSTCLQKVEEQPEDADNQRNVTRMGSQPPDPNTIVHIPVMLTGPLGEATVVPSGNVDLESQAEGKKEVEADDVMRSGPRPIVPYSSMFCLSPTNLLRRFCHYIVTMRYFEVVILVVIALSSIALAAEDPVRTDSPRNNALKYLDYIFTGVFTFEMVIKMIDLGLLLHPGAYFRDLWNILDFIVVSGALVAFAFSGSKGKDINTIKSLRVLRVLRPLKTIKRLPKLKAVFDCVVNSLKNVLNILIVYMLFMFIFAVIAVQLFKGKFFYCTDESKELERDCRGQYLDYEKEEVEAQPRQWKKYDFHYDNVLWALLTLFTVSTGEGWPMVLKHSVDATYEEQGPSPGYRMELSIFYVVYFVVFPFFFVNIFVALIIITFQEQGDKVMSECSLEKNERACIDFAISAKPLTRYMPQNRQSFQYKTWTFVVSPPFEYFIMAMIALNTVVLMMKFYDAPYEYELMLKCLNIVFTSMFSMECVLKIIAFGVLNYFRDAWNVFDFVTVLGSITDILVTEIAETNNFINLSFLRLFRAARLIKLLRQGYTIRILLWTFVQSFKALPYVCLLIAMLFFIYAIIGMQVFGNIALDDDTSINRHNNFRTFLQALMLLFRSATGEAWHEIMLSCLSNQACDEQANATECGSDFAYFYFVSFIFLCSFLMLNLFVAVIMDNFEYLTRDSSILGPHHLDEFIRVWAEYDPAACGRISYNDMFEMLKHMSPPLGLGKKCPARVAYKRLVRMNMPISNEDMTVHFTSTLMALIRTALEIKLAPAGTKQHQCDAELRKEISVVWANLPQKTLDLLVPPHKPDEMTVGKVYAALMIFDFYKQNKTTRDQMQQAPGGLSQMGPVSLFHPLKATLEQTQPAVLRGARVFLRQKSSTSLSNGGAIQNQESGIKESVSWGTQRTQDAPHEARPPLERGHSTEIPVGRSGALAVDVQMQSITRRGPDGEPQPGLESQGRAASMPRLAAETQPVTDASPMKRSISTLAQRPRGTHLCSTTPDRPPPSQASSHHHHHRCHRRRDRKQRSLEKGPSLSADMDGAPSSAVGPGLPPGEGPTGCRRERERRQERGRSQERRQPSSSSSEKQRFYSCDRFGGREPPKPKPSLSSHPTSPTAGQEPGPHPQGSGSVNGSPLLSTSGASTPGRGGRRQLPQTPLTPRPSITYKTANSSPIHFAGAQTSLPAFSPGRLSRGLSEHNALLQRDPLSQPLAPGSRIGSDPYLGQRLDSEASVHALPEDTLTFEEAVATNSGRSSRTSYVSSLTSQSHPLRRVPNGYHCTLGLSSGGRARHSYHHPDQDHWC

Structure (SMILES) | Activity Category: %-Inhib (CaV2.2) @3 μM @30 mM KCl | inhibition at 3 µM [%]
CC(C)(CO)n1nc(C(F)(F)F)cc1C1CC(C)(S(=O)(=O)c2cccc(C(F)(F)F)c2)CCO1 (stereo not drawn) [Example 6 cis-EN2, 2-Methyl-2-[5-[4-methyl-4-[[3-(trifluoromethyl)phenyl]sulfonyl]-tetrahydro-pyran-2-yl]-3-(trifluoromethyl)-1H-pyrazol-1-yl]-propan-1-ol] | A (“A”: %-Inhibition >95%) | –
COCn1nc(C(F)F)cc1C1CC(C)(S(=O)(=O)c2cccc(C(F)(F)F)c2)CCO1 (stereo not drawn) [Example 5 cis-EN2, 3-(Difluoromethyl)-1-(methoxymethyl)-5-(4-methyl-4-((3-(trifluoromethyl)phenyl)sulfonyl)tetrahydro-2H-pyran-2-yl)-1H-pyrazole] | A (“A”: %-Inhibition >95%) | –
CC1(S(=O)(=O)c2cccc(C(F)(F)F)c2)CCOC(c2cc(C(F)(F)F)nn2CCO)C1 (stereo not drawn) [Example 2 cis-EN2, 2-[5-[4-Methyl-4-[[3-(trifluoromethyl)phenyl]sulfonyl]-tetrahydro-pyran-2-yl]-3-(trifluoromethyl)-1H-pyrazol-1-yl]-ethanol] | A (“A”: %-Inhibition >95%) | –
CC(CO)Cn1nc(C(F)(F)F)cc1C1CC(C)(S(=O)(=O)c2cccc(C(F)(F)F)c2)CCO1 (racemic) [Example 24 cis-rac, 2-Methyl-3-[5-[4-methyl-4-[[3-(trifluoromethyl)phenyl]sulfonyl]-tetrahydro-pyran-2-yl]-3-(trifluoromethyl)-1H-pyrazol-1-yl]-propan-1-ol] | – | > 95
COCCCn1nc(C(F)(F)F)cc1C1CC(C)(S(=O)(=O)c2cccc(C(F)(F)F)c2)CCO1 (racemic) [Example 10 cis-rac, 1-(3-Methoxypropyl)-5-(4-methyl-4-((3-(trifluoromethyl)phenyl)sulfonyl)tetrahydro-2H-pyran-2-yl)-3-(trifluoromethyl)-1H-pyrazole] | – | > 95
CC1(S(=O)(=O)c2cccc(C(F)(F)F)c2)CCOC(c2cc(S(C)(=O)=O)nn2CCO)C1 (stereo not drawn) [Example 4 cis-EN1, 2-[3-Methylsulfonyl-5-[4-methyl-4-[[3-(trifluoromethyl)phenyl]sulfonyl]-tetrahydro-pyran-2-yl]-1H-pyrazol-1-yl]-ethanol] | – | 40 to 75
CN(C)C(=O)Cn1nc(C(F)(F)F)cc1C1CC(C)(S(=O)(=O)c2cccc(C(F)(F)F)c2)CCO1 (stereo not drawn) [Example 28 cis-EN1, N,N-Dimethyl-2-[5-[4-methyl-4-[[3-(trifluoromethyl)phenyl]sulfonyl]-tetrahydro-pyran-2-yl]-3-(trifluoromethyl)-1H-pyrazol-1-yl]-acetamide] | – | 75 to 95
CC1(S(=O)(=O)c2cccc(C(F)(F)F)c2)CCOC(c2cc(S(=O)(=O)C(F)F)nn2CCO)C1 (stereo not drawn) [Example 25 cis-EN2, 2-[3-(Difluoro-methylsulfonyl)-5-[4-methyl-4-[[3-(trifluoromethyl)phenyl]sulfonyl]-tetrahydro-pyran-2-yl]-1H-pyrazol-1-yl]-ethanol] | A (“A”: %-Inhibition >95%) | –
CC1(S(=O)(=O)c2cccc(C(F)(F)F)c2)CCOC(c2cc(S(=O)(=O)C(F)F)nn2CCO)C1 (stereo not drawn) [Example 25 cis-EN1, 2-[3-(Difluoro-methylsulfonyl)-5-[4-methyl-4-[[3-(trifluoromethyl)phenyl]sulfonyl]-tetrahydro-pyran-2-yl]-1H-pyrazol-1-yl]-ethanol] | – | 75 to 95
CC1(S(=O)(=O)c2cccc(C(F)(F)F)c2)CCOC(c2cc(C(F)(F)F)nn2CS(C)(=O)=O)C1 (racemic) [Example 18 cis-rac, 1-(Methylsulfonyl-methyl)-5-[4-methyl-4-[[3-(trifluoromethyl)phenyl]sulfonyl]-tetrahydro-pyran-2-yl]-3-(trifluoromethyl)-1H-pyrazole] | – | > 95
CC1(S(=O)(=O)c2cccc(C(F)(F)F)c2)CCOC(c2cc(C(F)(F)F)nn2CCS(C)(=O)=O)C1 (stereo not drawn) [Example 19 cis-EN2, 1-(2-Methylsulfonyl-ethyl)-5-[4-methyl-4-[[3-(trifluoromethyl)phenyl]sulfonyl]-tetrahydro-pyran-2-yl]-3-(trifluoromethyl)-1H-pyrazole] | – | > 95
CC1(S(=O)(=O)c2cccc(C(F)(F)F)c2)CCOC(c2cc(C(F)(F)F)nn2CCO)C1 (stereo not drawn) [Example 2 cis-EN1, 2-[5-[4-Methyl-4-[[3-(trifluoromethyl)phenyl]sulfonyl]-tetrahydro-pyran-2-yl]-3-(trifluoromethyl)-1H-pyrazol-1-yl]-ethanol] | – | 75 to 95
CC1(S(=O)(=O)c2cccc(C(F)(F)F)c2)CCOC(c2cc(C(F)(F)F)nn2CCCO)C1 (stereo not drawn) [Example 9 cis-EN1, 3-[5-[4-Methyl-4-[[3-(trifluoromethyl)phenyl]sulfonyl]-tetrahydro-pyran-2-yl]-3-(trifluoromethyl)-1H-pyrazol-1-yl]-propan-1-ol] | – | 75 to 95
CC1(S(=O)(=O)c2cccc(C(F)(F)F)c2)CCOC(c2cc(C(F)(F)F)nn2C2COC2)C1 (stereo not drawn) [Example 17 cis-EN1, 5-[4-Methyl-4-[[3-(trifluoromethyl)phenyl]sulfonyl]-tetrahydro-pyran-2-yl]-1-(oxetan-3-yl)-3-(trifluoromethyl)-1H-pyrazole] | – | 75 to 95
CC1(S(=O)(=O)c2cccc(C(F)(F)F)c2)CCOC(c2cc(C(F)(F)F)nn2CCS(C)(=O)=O)C1 (stereo not drawn) [Example 19 cis-EN1, 1-(2-Methylsulfonyl-ethyl)-5-[4-methyl-4-[[3-(trifluoromethyl)phenyl]sulfonyl]-tetrahydro-pyran-2-yl]-3-(trifluoromethyl)-1H-pyrazole] | B (“B”: %-Inhibition >75% up to ≤95%) | –
COCn1nc(C(F)F)cc1C1CC(C)(S(=O)(=O)c2cccc(C(F)(F)F)c2)CCO1 (stereo not drawn) [Example 5 cis-EN1, 3-(Difluoromethyl)-1-(methoxymethyl)-5-(4-methyl-4-((3-(trifluoromethyl)phenyl)sulfonyl)tetrahydro-2H-pyran-2-yl)-1H-pyrazole] | – | 75 to 95
CC(C)(C(N)=O)n1nc(C(F)(F)F)cc1C1CC(C)(S(=O)(=O)c2cccc(C(F)(F)F)c2)CCO1 (stereo not drawn) [Example 26 cis-EN2, 2-Methyl-2-[5-[4-methyl-4-[[3-(trifluoromethyl)phenyl]sulfonyl]-tetrahydro-pyran-2-yl]-3-(trifluoromethyl)-1H-pyrazol-1-yl]-propionamide] | B (“B”: %-Inhibition >75% up to ≤95%) | –
CC1(S(=O)(=O)c2cccc(C(F)(F)F)c2)CCOC(c2cc(C(F)(F)F)nn2CC2(N)CC2)C1 (racemic) [Example 15 cis-rac, [1-[[5-[4-Methyl-4-[[3-(trifluoromethyl)phenyl]sulfonyl]-tetrahydro-pyran-2-yl]-3-(trifluoromethyl)-1H-pyrazol-1-yl]-methyl]-cyclopropyl]-amine] | – | > 95
CNC(=O)Cn1nc(C(F)(F)F)cc1C1CC(C)(S(=O)(=O)c2cccc(C(F)(F)F)c2)CCO1 (stereo not drawn) [Example 29 cis-EN1, N-Methyl-2-[5-[4-methyl-4-[[3-(trifluoromethyl)phenyl]sulfonyl]-tetrahydro-pyran-2-yl]-3-(trifluoromethyl)-1H-pyrazol-1-yl]-acetamide] | – | 75 to 95
COCCn1nc(S(C)(=O)=O)cc1C1CC(C)(S(=O)(=O)c2cccc(C(F)(F)F)c2)CCO1 (racemic) [Example 23 cis-rac, 1-(2-Methoxyethyl)-5-(4-methyl-4-((3-(trifluoromethyl)phenyl)sulfonyl)tetrahydro-2H-pyran-2-yl)-3-(methylsulfonyl)-1H-pyrazole] | – | 75 to 95
CC1(S(=O)(=O)c2cccc(C(F)(F)F)c2)CCOC(c2cc(C(F)(F)F)nn2CCO)C1 (racemic) [Example 2 trans-rac, 2-[5-[4-Methyl-4-[[3-(trifluoromethyl)phenyl]sulfonyl]-tetrahydro-pyran-2-yl]-3-(trifluoromethyl)-1H-pyrazol-1-yl]-ethanol] | – | 40 to 75

From patent publication US10100041B2, “Pyrazolyl substituted tetrahydropyranylsulfones” (GRÜNENTHAL GMBH, priority 2015, dated 2018)
